From US10807968B2, “Substituted 2-(het)arylimidazolylcarboxyamides as pesticides” (Bayer CropScience Aktiengesellschaft, priority 2016, dated 2020)
Like-named read-outs stand apart in the source and are kept apart here.

Columns and labels:
Myzus persicae [1] = experiment: Myzus persicae - oral test (MYZUPE O), comparison with prior art; format: in vivo; settings: 120 h, read-out: % efficacy dat
Description: Myzus persicae—Oral Test (MYZUPE O)
(§1) Solvent: 100 parts by weight of acetone
(§2) To produce a suitable preparation of active compound, 1 part by weight of active compound is dissolved using the specified parts by weight of solvent and made up with water until the desired concentration is attained.
50 μl of the active compound preparation are transferred into microtitre plates and made up to a final volume of 200 μl with 150 μl of IPL41 insect medium (33%+15% sugar). Subsequently, the plates are sealed with parafilm, which a mixed population of green peach aphids (Myzus persicae) within a second microtitre plate is able to puncture and imbibe the solution through it.
After 5 or 6 days (dat), the efficacy in % is determined. 100% means that all the aphids have been killed; 0% means that no aphids have been killed.

[2] = log P determination by HPLC on reversed-phase (C18) columns, OECD Guideline 117; format: physicochemical; settings: for logp-acidic: pH 2.7; for logp-neutral: pH 7.8
Description: The log P values were determined in accordance with OECD Guideline 117 (EC Directive 92/69/EEC) by HPLC (high-performance liquid chromatography) using reversed-phase (RP) columns (C18), by the following methods:
[a] The LC-MS determination in the acidic range was carried out at pH 2.7 with 0.1% aqueous formic acid and acetonitrile (contains 0.1% formic acid) as mobile phases; linear gradient from 10% acetonitrile to 95% acetonitrile.
[b] LC-MS determination in the neutral range was carried out at pH 7.8 with 0.001 molar aqueous ammonium hydrogencarbonate solution and acetonitrile as mobile phases; linear gradient from 10% acetonitrile to 95% acetonitrile.

Myzus persicae [3] = experiment: Myzus persicae - oral test; format: in vivo; settings: after 5 days; for pest or weed control at 20 ppm: Myzus persicae, 120 h, read-out: efficacy in % (aphids killed); for efficacy in % (aphids killed): 20 ppm
Description: as §1
Subsequently, the plates are sealed with parafilm, which a mixed population of green peach aphids (Myzus persicae) within a second microtitre plate is able to puncture and imbibe the solution through it.
After 5 days, the efficacy in % is determined. 100% means that all the aphids have been killed; 0% means that no aphids have been killed.

Myzus persicae [4] = experiment: Myzus persicae - spray test (Chinese cabbage leaf discs); format: in vivo; settings: 500 g/ha, after 6 days; for pest or weed control at 500 g/ha: Myzus persicae, foliar, 144 h, read-out: efficacy in % (aphids killed)
Description: Myzus persicae—Spray Test
Solvent: 78 parts by weight of acetone • • 1.5 parts by weight of dimethylformamide
(§3) Emulsifier: alkylaryl polyglycol ether
as §2, with “water containing an emulsi fier concentration of 1000 ppm” for “water”, “attained. To produce further test concentrations, the formulation is diluted with emulsifier-containing water.” for “attained.”
Discs of Chinese cabbage leaves (Brassica pekinensis) infested by all stages of the green peach aphid (Myzus persicae) are sprayed with an active compound formulation of the desired concentration.
After 6 days, the efficacy in % is determined. 100% means that all the aphids have been killed; 0% means that no aphids have been killed.

Myzus persicae [5] = experiment: Myzus persicae - spray test (MYZUPE), comparison with prior art; format: in vivo; settings: read-out: % efficacy dat
Description: Myzus persicae—Spray Test (MYZUPE)
(§4) Solvent: 78.0 parts by weight of acetone • • 1.5 parts by weight of dimethylformamide
as §3
as §2, with “water containing an emulsifier concentration of 1000 ppm” for “water”, “attained. To produce further test concentrations, the formulation is diluted with emulsifier-containing water.” for “attained.”
Discs of Chinese cabbage leaves (Brassica pekinensis) infested by all stages of the green peach aphid (Myzus persicae) are sprayed with an active compound preparation of the desired concentration.
After the desired period of time, the efficacy in % is determined. 100% means that all the aphids have been killed; 0% means that no aphids have been killed.

Myzus persicae [6] = experiment: Myzus persicae - spray test (bell pepper plants); format: in vivo; settings: 20 ppm, after 6 days
Description: Myzus persicae—Spray Test Solvent: 14 parts by weight of dimethylformamide Emulsifier: alkylaryl polyglycol ether […] To produce further test concentrations, the formulation is diluted with emulsifier-containing water. If the addition of ammonium salts or/and penetrants is required, these are each added in a concentration of 1000 ppm to the formulation solution. Bell pepper plants (Capsicum annuum) severely infested with the green peach aphid (Myzus persicae) are treated by spraying with the active compound formulation in the desired concentration.

Tetranychus urticae = Tetranychus urticae - spray test, OP-resistant; format: in vivo; settings: 500 g/ha, after 6 days, bean leaf discs
Description: Tetranychus Urticae—Spray Test, OP-Resistant
as §4, §3
as §2, with “water containing an emulsifier concentration of 1000 ppm” for “water”, “attained. To produce further test concentrations, the formulation is diluted with emulsifier-containing water.” for “attained.”
Discs of bean leaves (Phaseolus vulgaris) infested with all stages of the greenhouse red spider mite (Tetranychus urticae) are sprayed with an active compound formulation of the desired concentration.
After 6 days, the efficacy in % is determined. 100% means that all the spider mites have been killed; 0% means that no spider mites have been killed.

[7] = reversed-phase (C18) HPLC column, pH 2.7, HPLC, acidic range pH 2.7, 0.1% aqueous formic acid/acetonitrile, read-out: logp-acidic
[8] = reversed-phase (C18) HPLC column, pH 7.8, HPLC, neutral range pH 7.8, 0.001 molar aqueous ammonium hydrogencarbonate/acetonitrile, read-out: logp-neutral
[9] = 120 h, MYZUPE, 100 g ai/ha, 5 dat

Row | logp-acidic [2] | logp-neutral [2] | SMILES | Emax at 4 ppm (Myzus persicae [1]; MYZUPE O, 4 ppm, 5 dat) [%] | chromatographic logP [2, 7] | chromatographic logP [2, 8] | pest or weed control at 20 ppm (Myzus persicae [3]) [%] | pest or weed control at 500 g/ha (Myzus persicae [4]) [%] | Emax at 100 g/ha (Myzus persicae [5]; [9]) [%] | efficacy in % (aphids killed) (Myzus persicae [3]) [%] | also measured
1 | – | – | COc1ncc(-c2ncc(C(=O)N(C)c3cccnc3)n2C)cc1C#N [Example 68] | 100 | 1.2 | 1.44 | 100 | 100 | 100 | – | –
2 | – | – | CN(C(=O)c1cnc(-c2ccc(F)c(C(F)(F)F)c2)n1C)c1cccnc1 [Example 50] | – | 1.72 | 2.08 | 100 | – | – | – | kill in % (aphids killed) (Myzus persicae [6]): 100%
3 | – | – | CN(C(=O)c1cnc(-c2cc3ccccc3o2)n1C)c1cccnc1 [Example 70] | – | – | – | 100 | – | – | – | chromatographic logP ([2]; HPLC, acidic range pH 2.7, 0.1% aqueous formic acid/acetonitrile, read-out: logp-acidic): 1.63; chromatographic logP ([2]; HPLC, neutral range pH 7.8, 0.001 molar aqueous ammonium hydrogencarbonate/acetonitrile, read-out: logp-neutral): 1.87; kill in % (aphids killed) (Myzus persicae [6]): 95%
4 | – | – | CN(C)c1ncc(-c2ncc(C(=O)N(C)c3cccnc3)n2C)cc1C#N [Example 65] | 100 | 1.1 | 1.5 | 100 | 100 | 90 | – | –
5 | 1.28 | 1.62 | CN(C(=O)c1cnc(-c2cccc([S+]([O-])C(F)(F)F)c2)n1C)c1cccnc1 (centres unmarked) [Example 49] | – | – | – | – | – | – | 100 | kill in % (aphids killed) (Myzus persicae [6]): 100%
6 | – | – | CN(C(=O)c1cnc(-c2cncc(C#N)c2)n1C)c1cccnc1 [Example 64] | – | 0.75 | 0.98 | 100 | 90 | – | – | Emax at 4 ppm (Myzus persicae [1]): 100%; Emax at 100 g/ha (Myzus persicae [5]; 120 h): 90%
7 | 2.09 | 2.40 | CN(C(=O)c1cnc(-c2cccc(C(F)(F)C(F)(F)F)c2)n1C)c1cccnc1 [Example 57] | – | – | – | – | – | – | 100 | efficacy in % (spider mites killed) (Tetranychus urticae): 90%; efficacy in % (aphids killed) (Myzus persicae [4]): 100%
8 | – | – | CN(C(=O)c1cnc(-c2ccc(C#N)c(C(F)(F)F)c2)n1C)c1cccnc1 [Example 16] | – | – | – | – | – | – | – | Emax at 4 ppm (Myzus persicae [1]): 100%; Emax at 100 g/ha (Myzus persicae [5]; 144 h): 90%
9 | – | – | COc1cccc(-c2ncc(C(=O)N(C)c3cccnc3)n2C)n1 [Example 78] | 100 | 1.23 | 1.6 | 100 | 90 | 70 | – | –
10 | 1.64 | 1.99 | CN(C(=O)c1cnc(-c2cccc(C(F)(F)F)c2)n1C)c1cccnc1 [Example 52] | – | – | – | – | – | – | 100 | efficacy in % (spider mites killed) (Tetranychus urticae): 90%; efficacy in % (aphids killed) (Myzus persicae [4]): 100%
11 | 1.55 | 1.87 | CC(C)Oc1ccc(-c2ncc(C(=O)N(C)c3cccnc3)n2C)cc1C#N [Example 105] | – | – | – | – | – | – | 100 | efficacy in % (spider mites killed) (Tetranychus urticae): 100%; efficacy in % (aphids killed) (Myzus persicae [4]): 90%
12 | – | – | COc1ccc(-c2ncc(C(=O)N(C)c3cccnc3)n2C)c(OC)n1 [Example 81] | 70 | 0.89 | 1.69 | 100 | 100 | 70 | – | –
